Measured values published in article PMC12714254, “Exploiting peptide chirality and transport to dissect the complex mechanism of action of host peptides on bacteria” (PLOS Genetics, 2025).

Assays:
S. meliloti cell cycle = system: S. meliloti cell cycle; set-up: method as in PMID 24501120; settings: ref [12]; cited from earlier work
[1] = system: in vitro coupled transcription-translation (GFP reporter); assay: In vitro translation assay, GFP fluorescence; format: biochemical; settings: same molarity, S3C Fig

| Substance | cell cycle changes (S. meliloti cell cycle) | translation inhibition by LL37 vs NCR247 [1] |
| --- | --- | --- |
| Polymyxin B | cannot elicit cell cycle changes | – |
| LL37: cationic peptide LL37 (LLGDFFRKSKEKIGKEFKRIVQRIKDFLRNLVPRTES; Antibacterial peptide LL-37; UniProt P49913 134-170, looked up) | cannot elicit cell cycle changes | very diminished phenotype as compared to the L-NCR247 and was lesser than the inhibition by D-NCR247 |
